Active and inactive are the calls of the source.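 The calls were made as follows: active = IC50 at or below 10 micromolar; inactive = IC50 above 10 micromolar.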
Target: Bcl-2-like protein 1 (Homo sapiens) (UniProt Q07817)
Assay: Bcl-xL inhibitors, concentration-response – biochemical, fluorescence polarization, powder samples, counter-screen for MCL1-BIM inhibitor project, dose response (AID 2790)
Settings: GST-BCL-XL / FITC-Bim BH3 fluorescence polarization

Chain of Bcl-2-like protein 1 (Homo sapiens) (Q07817 whole entry, looked up): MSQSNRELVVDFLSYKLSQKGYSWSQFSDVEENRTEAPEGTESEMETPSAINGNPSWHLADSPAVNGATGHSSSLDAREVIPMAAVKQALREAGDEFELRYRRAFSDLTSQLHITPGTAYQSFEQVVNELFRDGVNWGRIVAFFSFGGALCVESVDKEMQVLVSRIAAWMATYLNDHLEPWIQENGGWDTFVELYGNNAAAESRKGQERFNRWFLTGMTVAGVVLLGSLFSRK

IC50 | Structure (SMILES)
> 109 µM (inactive) | O=C(NN=Cc1ccc(-c2ccc(S(=O)(=O)Nc3ncccn3)cc2)o1)c1cc2ccccc2cc1O
> 109 µM (inactive) | c1coc(-c2nc(-c3ccco3)c(-c3ccco3)nc2-c2ccco2)c1
> 109 µM (inactive) | COc1ccc(-n2cccc2/C=C2\C(=N)N3N=C(c4ccco4)SC3=NC2=O)cc1
> 109 µM (inactive) | O=C1COc2ccc(C(=O)COC(=O)/C=C/c3ccc(Br)o3)cc2N1
> 109 µM (inactive) | C=CCN=c1scc(-c2ccco2)n1/N=C/c1ccc(O)c(O)c1O
> 109 µM (inactive) | COC(=O)c1ccccc1NCc1cc(=O)oc2cc(O)c(O)cc12
> 109 µM (inactive) | CCOc1ccc(NC(=O)c2cccc(-n3cccc3)c2)cc1S(=O)(=O)N1CCOCC1
> 109 µM (inactive) | Cc1cccc(NC(=O)CNC(=O)c2cccc(-n3cccc3)c2)c1C
> 109 µM (inactive) | Cc1ccc(C(=O)O)cc1-c1ccc(/C=C2\SC(=O)N(CC(=O)Nc3ccc4c(c3)OCO4)C2=O)o1
> 109 µM (inactive) | CCc1sc(C(C2C(=O)CC(C)(C)CC2=O)C2C(=O)CC(C)(C)CC2=O)cc1[N+](=O)[O-]
inactive | C=CCn1c(SCC(=O)c2ccc(O)c(O)c2)nnc1-c1cccnc1
> 109 µM (inactive) | O=C(NN=Cc1cccc(F)c1)c1cc(-c2ccco2)nc2ccccc12
> 109 µM (inactive) | COc1ccc(NC(=O)CN(C)C(=O)c2cc3c(s2)CCC3)cc1
> 109 µM (inactive) | COc1ccc(Cc2nnc(NC(=O)Cc3cccs3)s2)cc1OC
> 109 µM (inactive) | Nc1ccc(C(=O)NN=Cc2cc(N=Nc3cccc4ccccc34)ccc2O)cc1

Source: PubChem BioAssay AID2790 (The Scripps Research Institute Molecular Screening Center, 2010)
